Source: PMC8111499, “GW117: A novel serotonin (5‐HT2C) receptor antagonist and melatonin (MT1/MT2) receptor agonist with potential antidepressant‐like activity in rodents” (CNS Neuroscience & Therapeutics, 2021)

Key:
rats = test: Locomotor activity in rats; format: in vivo; conditions: for Locomotor activity, Crossing number / Locomotor activity, Rearing number: Rats, mean ± S.E.M.
Method: (§1) In order to confirm whether GW117 has an antidepressant activity, we used spontaneous activities in mice and rats to determine whether GW117 affects the central system. 64 ICR mice were randomly allocation to five therapy groups ([…]): control group, 5 mg/kg GW117, 10 mg/kg GW117, 20 mg/kg GW117, and 40 mg/kg GW117. All rats and mice received one administration (p.o.). After sixty minutes of gavage administration, each mouse or rat was located in the corner of an open field chamber (36 × 29 × 23 cm for mice; 76 × 76 × 46 cm for rats) to adapt to 5 min. The numbers of crossings and rearings were recorded during the subsequent 5 min.

5‐HT2C receptor = biological target: T1, 5‐HT2C receptor (Rattus norvegicus, UniProt P08909); test: 5‐HT2C receptor binding assay ([3H]‐LSD competition); conditions: mean ± SEM, three independent experiments
T1 construct: 5‐HT2C receptor membrane protein was extracted from rat hippocampus and a stably transfected HEK293 cell line; from tissue; host or cells: rat hippocampus
T1 sequence (P08909 33-460): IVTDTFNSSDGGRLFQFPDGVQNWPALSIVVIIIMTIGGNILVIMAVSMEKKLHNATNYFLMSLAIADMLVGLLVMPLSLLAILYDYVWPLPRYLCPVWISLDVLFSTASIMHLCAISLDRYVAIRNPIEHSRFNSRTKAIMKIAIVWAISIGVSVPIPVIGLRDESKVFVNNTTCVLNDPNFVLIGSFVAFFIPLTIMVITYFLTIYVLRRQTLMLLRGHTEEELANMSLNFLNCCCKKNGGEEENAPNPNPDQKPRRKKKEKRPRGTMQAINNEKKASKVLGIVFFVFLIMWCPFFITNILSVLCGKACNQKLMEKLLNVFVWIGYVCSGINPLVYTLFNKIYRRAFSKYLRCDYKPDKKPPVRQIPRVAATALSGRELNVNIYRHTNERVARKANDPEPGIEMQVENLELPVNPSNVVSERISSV
Method: Hippocampal membrane preparations were obtained using previously described methods. ^24 , ^25 , ^26 Briefly, rats were decapitated and their brains were rapidly removed. Next, the hippocampus was dissected and subsequently homogenized in 40 volumes of ice‐cold buffer (50 mM Tris‐HCl Buffer, pH 7.4) and then centrifuged at 40,000 × g at 4°C for 10 min. The particles were re‐suspended and centrifuged again. In order to remove endogenous monoamines, the final suspension was incubated at 37°C for 20 min and then centrifuged as usual. The final pellets were frozen at −80°C at once for up to 1 week.
Human MT1/MT2 receptor membrane proteins were obtained from Perkin‐Elmer (ES‐620 [MT1] and ES‐621 [MT2]). The stably transfected 5‐HT2C receptor HEK293 cell line was prepared using a nucleus‐cytoplasm‐membrane preparation kit (Applagin Technologies Inc.). Briefly, cells were harvested at 4°C, 110 00 × g and centrifugation for 5 min. Homogenize pellets in the assay buffer (50 mM Tris‐HCl buffer containing 120 mM NaCl and 5 mM KCl, pH 7.4) and then centrifuged twice at 4°C, 36,000 × g for 15 min. […]
Receptor membrane protein, 5‐HT2C (50 μl), was added to all the tubes. Non‐specific binding was determined by the presence of unlabeled 10 μM 5‐HT and pre‐reacted for 30 min. […] Finally, 1 ml of scintillation fluid was added and the radioactive intensity measured by liquid scintillation counting.

[1] = biological target: T2, 5‐HT2C receptor from rat hippocampal membranes (Rattus norvegicus, UniProt P08909); test: [35S]‐GTPγS and [3H]PIP assays, blockade of 5‐HT activation; format: biochemical; conditions: 10 nM 5‐HT
T2 construct: 5‐HT2C receptor from rat hippocampal membranes (C‐D); from tissue; host or cells: rat hippocampus
T2 sequence (P08909 33-460): T1 sequence (P08909 33-460)
Method: This experiment was mentioned earlier. ^27 In short, HEK293 cell membrane stably expressing human 5‐HT2C receptors or rat hippocampal tissue membrane or MT1/MT2 receptors was re‐suspended in buffer (50 mmol/L Tris, 100 mmol/L NaCl, 5 mmol/L MgCl2·6H2O, 0.1 mmol/L EDTA‐Na2·6H2O, 0.2 mmol/L EGTA, pH 7.4) and incubated with the test compound (100 μM GDP, 0.2 nM [^35S]‐GTP, or [^3H]PIP) for 60 min at 28℃. At the end of the experiment, Whatman GF/C filters pre‐soaked with distilled water were used for rapid filtration followed by washing with 5 ml of ice‐cold Tris buffer. Determination of non‐specific binding in the presence of GTPγS and radioactivity was measured by liquid scintillation counting. Calculation of the concentration produces a half‐maximal effect (EC50) and the maximal increase above the baseline value.

mice = test: Locomotor activity in mice; format: in vivo, ICR mice; conditions: for Locomotor activity, Crossing number / Locomotor activity, Rearing number: Mice, mean ± S.E.M.
Method: as §1

For `[2H]C([2H])([2H])Oc1cc2c(CCNC(C)=O)cccc2cc1Cl` [GW117], the “Locomotor activity, Crossing number” value (rats; 5 mg/kg p.o.) was 70.3 ± 5.1, the “Locomotor activity, Rearing number” value (rats; 5 mg/kg p.o.) was 14.2 ± 1.4 and the “Locomotor activity, Crossing number” value (rats; 10 mg/kg p.o.) was 71.3 ± 6.8. For the same compound, the “Locomotor activity, Rearing number” value (rats; 10 mg/kg p.o.) was 14.9 ± 1.5, the “Locomotor activity, Crossing number” value (rats; 20 mg/kg p.o.) was 60.9 ± 4.4 and the “Locomotor activity, Rearing number” value (rats; 20 mg/kg p.o.) was 13.8 ± 1.3. For the same compound, the “Locomotor activity, Crossing number” value (rats; 40 mg/kg p.o.) was 63.5 ± 4.6, the “Locomotor activity, Rearing number” value (rats; 40 mg/kg p.o.) was 12.8 ± 1.3 and the “effect on number of crossings and rearings in the spontaneous activity test” value (rats; rats, 5, 10, 20, or 40 mg/kg by gavage) was “had no effect”. For the same compound, the Ki (5‐HT2C receptor) was 0.32 ± 0.08 nM, the “blockade of activation of [35S]‐GTPγS binding and [3H]PIP released by 5‐HT” value [1] was “dose‐dependently blocked” and the “Locomotor activity, Crossing number” value (mice; 5 mg/kg p.o.) was 86.8 ± 4.4. For the same compound, the “Locomotor activity, Rearing number” value (mice; 5 mg/kg p.o.) was 22.7 ± 1.8, the “Locomotor activity, Crossing number” value (mice; 10 mg/kg p.o.) was 80.1 ± 4.8 and the “Locomotor activity, Rearing number” value (mice; 10 mg/kg p.o.) was 22.6 ± 2.1. For the same compound, the “Locomotor activity, Rearing number” value (mice; 20 mg/kg p.o.) was 20.7 ± 1.5, the “Locomotor activity, Crossing number” value (mice; 40 mg/kg p.o.) was 86.3 ± 4.4 and the “Locomotor activity, Rearing number” value (mice; 40 mg/kg p.o.) was 21.3 ± 1.4. The “effect on number of crossings and rearings in the spontaneous activity test” value (mice; mice, 5, 10, 20, or 40 mg/kg by gavage) was “had no effect”.
